According to US8088806B2 (Achillion Pharmaceuticals, Inc., priority 2005, dated 2012):
pEC50: −log10 of the molar value.

What follows are molecules tested on HCV replicon (assay: Replicon based assay of HCV replication inhibition (NPT ELISA)). Settings: Hepatitis C virus, Huh-7, 72 h, Table I; Huh-7 HCV replicon-containing cells, three days; read-out: Activity.
Assay type: cell-based, Hepatitis C virus
Method in brief: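 Huh-7 cells carrying a bicistronic HCV replicon (neo, EMCV-IRES-driven NS3–NS5B) treated overnight after seeding with usually 6 concentrations, 10 to 0.03 micromolar, for three days at 37° C without G418. Replication read as NPT level by captured ELISA; matched-DMSO wells and interferon alpha as controls.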

| Compound | pEC50 |
| --- | --- |
| CCCCCOc1ccc(Nc2nc(C(=O)Nc3ccc(OC)cc3)cs2)cc1C(F)(F)F [compound 16, 2-(3-(trifluoromethyl)-4-(pentyloxy)phenylamino)-N-(4-methoxyphenyl)thiazole-4-carboxamide] | < 5.00 |
| CCCCCc1ccc(Nc2nc(-c3cccc(F)c3)cs2)cc1 [compound 183, 4-(3-fluorophenyl)-N-(4-pentylphenyl)thiazol-2-amine] | > 6.00 |
| Fc1ccc(-c2csc(Nc3ccc(Cc4ccccc4)cc3)n2)cc1 [compound 39, N-(4-benzylphenyl)-4-(4-fluorophenyl)thiazol-2-amine] | < 5.00 |
| CCCCCc1ccc(Nc2nc(-c3cccnc3)cs2)cc1 [compound 86, N-(4-pentylphenyl)-4-(pyridin-3-yl)thiazol-2-amine] | > 6.00 |

Same assay, conditions: Hepatitis C virus, Huh-7, 72 h, Table III; Huh-7 HCV replicon-containing cells, three days; read-out: Activity

| Compound | pEC50 |
| --- | --- |
| CCCCCCCCOc1ccc(Nc2nc(Cc3ccc(Cl)cc3)cs2)cc1 [compound 634, 4-(4-chlorobenzyl)-N-(4-(octyioxy)phenyl)thiazol-2-amine] | < 5.00 |
| CCCCCCCCOc1ccc(Nc2nc(-c3ccc(N)nc3)cs2)cc1C(F)(F)F [compound 679, 5-(2-(3-(trifluoromethyl)-4-(octyloxy)phenylamino)thiazol-4-yl)pyridin-2-amine] | > 6.00 |
| CCCCCCCc1ccc(Nc2nc(-c3ccc(-c4ccccn4)s3)cs2)cc1 [compound 564, N-(4-heptylphenyl)-4-(5-(pyridin-2-yl)thiophen-2-yl)thiazol-2-amine] | > 6.00 |
| CCCCCCCCOc1ccc(Nc2nc(-c3cnc(N)c(C)c3)cs2)cc1C(F)(F)F [compound 687, 5-(2-(3-(trifluoromethyl)-4-(octyloxy)phenylamino)thiazol-4-yl)-3-methylpyridin-2-amine] | > 6.00 |
| CCCCCCCCOC(=O)c1ccc(Nc2nc(-c3ccc(F)cc3)cs2)cc1C(F)(F)F [compound 700, octyl 4-(4-(4-fluorophenyl)thiazol-2-ylamino)-2-(trifluoromethyl)benzoate] | > 6.00 |

Same assay, conditions: Hepatitis C virus, replicon based assay of HCV replication inhibition; Table II; read-out: Activity

| Compound | pEC50 |
| --- | --- |
| CCCCCCCOc1ccc(Nc2nc(-c3cccs3)cs2)cc1 [compound 359, N-(4-(heptyloxy)phenyl)-4-(thiophen-2-yl)thiazol-2-amine] | > 6.00 |
| CCCCCOc1ccc(Nc2nc(-c3ccc(C(=O)NC4CC4)nc3)cs2)cc1C(F)(F)F [compound 301, N-cyclopropyl-5-(2-(4-(pentyloxy)-3-(trifluoromethyl)phenylamino)thiazolo-4-yl)picolinamide] | > 6.00 |
| c1ccc(Oc2cccc(Nc3nc(-c4cc5cnccc5o4)cs3)c2)cc1 [compound 363, 4-(furo[3,2-c]pyridin-2-yl)-N-(3-phenoxyphenyl)thiazol-2-amine] | < 5.00 |

Same assay, conditions: Hepatitis C virus, replicon based assay of HCV replication inhibition; Table IV; read-out: Activity

| Compound | pEC50 |
| --- | --- |
| CCCCCCCCOc1ccc(Nc2nc(C(=O)CSc3ccccn3)cs2)cc1C(F)(F)F [compound 917, 1-(2-(3-(trifluoromethyl)-4-(octyloxy)phenylamino)thiazol-4-yl)-2-(pyridin-2-ylthio)ethanone] | 5.00 to 6.00 |
| CC(C)c1ccc(Nc2nc(-c3cccnc3)cs2)cc1 [compound 887, N-(4-isopropylphenyl)-4-(pyridin-3-yl)thiazol-2-amine] | 5.00 to 6.00 |
| Cc1cccc2sc(Nc3nc(-c4cccnc4)cs3)nc12 [compound 747, 4-methyl-N-(4-(pyridin-3-yl)thiazol-2-yI)benzo[d]thiazol-2-amine] | < 5.00 |
| Cc1cc(OC(F)(F)F)ccc1Nc1nc(-c2cccnc2)cs1 [compound 877, N-(2-methyl-4-(trifluoromethoxy)phenyl)-4-(pyridin-3-yl)thiazol-2-amine] | < 5.00 |
| CCCCCCCCNc1ccc(-c2nc(-c3csc(Nc4cccnc4)n3)cs2)cc1C(F)(F)F [compound 869, N-(4-(2-(3-(trifluoromethyl)-4-(octylamino)phenyl)thiazol-4-yl)thiazol-2-yl)pyridin-3-amine] | > 6.00 |
| COc1ccc(Nc2nc(-c3cccnc3)cs2)cc1S(=O)(=O)Nc1ccc(Cl)cc1 [compound 818] | < 5.00 |
| c1ccc(Oc2ccc(Nc3nc(-c4cccnc4)cs3)cn2)cc1 [compound 752, 6-phenoxy-N-(4-(pyridin-3-yl)thiazol-2-yl)pyridin-3-amine] | 5.00 to 6.00 |
